Reference: PMC7571145, “Multistep Synthesis and In Vitro Anticancer Evaluation of 2-Pyrazolyl-Estradiol Derivatives, Pyrazolocoumarin-Estradiol Hybrids and Analogous Compounds” (Molecules, 2020)
Like-named read-outs stand apart in the source and are kept apart here.

Legend:
DU145 cells = experiment: MTT cytotoxicity assay on DU145 prostate cancer cells; type: cell-based; conditions: for primary growth inhibitory screen, cell viability, DU145: 2.5 µM, 72 h, mean±SD, untreated control about 100; for IC50: mean ± SD
Experimental: (§1) Cytotoxicity screens were performed to assess the in vitro anticancer activity of the synthesized A-ring-linked 2-pyrazoles of estradiol, the pyrazolocoumarin-estradiol hybrids, and their structurally simplified non-steroidal analogs on various cancerous cell lines such as MCF-7, PC-3, DU145, and HeLa and on non-cancerous MRC-5 fibroblasts. The 2-acetyl-phenol starting materials (4, 5, and 15) were also included for comparison. All compounds were applied in 2.5 µM concentration for 72 h. The obtained cell viability data were used to construct a heat map (Figure 2) in order to select compounds that exert cancer cell line-specific cytotoxicity. […] Furthermore, some compounds discriminated only DU145 cells and could eliminate these type of prostate cancer cells.
(§2) To understand structure-function relationships, we also included the structural analogs of the selected compounds, namely 7a (C-17 acetate of 8a), 8c (C-17 OH counterpart of 7c), and 9a (steroidal pair of 19a) into subsequent analyses. […] For this, compounds were applied on MCF-7, PC-3, DU145, and HeLa and on non-cancerous MRC-5 fibroblasts in various concentrations for 72 h or were treated with cisplatin at different concentrations. On the viability data, dose–response curves were fitted (Figure S1) and IC50 values were calculated accordingly (Table 3). In agreement with the primary cytotoxicity screen (Table S1), the obtained IC50 concentrations clearly indicated which compound was selectively effective on one or more cancer cell lines. […] Typically, acetylated steroidal pyrazoles were less favorable than deacetylated counterparts due to reduced cancer cell selectivity (7c, 10a).
(§3) To evaluate the in vitro pharmacological effects of the synthesized molecules, each compound was first dissolved in cell culture grade DMSO (Sigma) to a final concentration of 10 mM. Using MTT colorimetric assay, the cytotoxicity of these compounds was evaluated on cancerous (MCF-7, HeLa, DU145, PC-3) and non-cancerous (MRC-5) cell lines. Briefly, 5000 cells/well of each cell line were seeded in 96-well plates and were left to grow overnight in a 5% CO2 atmosphere at 37 °C. On the next day, cells were treated with each derivative separately, in case of the primary screen, or only with the selected compounds upon IC50 determination. Cells were incubated with the test compounds for 72 h in a 5% CO2 atmosphere at 37 °C. End point was measured by incubating cells for 1 h with 0.5 mg/mL of MTT reagent (Serva) dissolved in serum free culture medium. The formazan crystals formed by metabolically active cells were later dissolved in DMSO. Optical density of the obtained solutions was measured at 570 nm using a Synergy HTX plate reader. […] The analysis and conclusions were made based on three independent experiments. Normalized data were analyzed and the heat map was constructed using GraphPad Prism 7 software.

MRC-5 fibroblasts = experiment: MTT cytotoxicity assay on non-cancerous MRC-5 fibroblasts; type: cell-based; conditions: for primary growth inhibitory screen, cell viability, MRC-5 / IC50: MTT; for primary growth inhibitory screen, cell viability, MRC-5: mean±SD, untreated control about 100; for IC50: mean ± SD
Experimental: as §1, §2, §3

PC-3 cells = experiment: MTT cytotoxicity assay on PC-3 prostate cancer cells; type: cell-based; conditions: for primary growth inhibitory screen, cell viability, PC-3: 2.5 µM, 72 h, mean±SD, untreated control about 100; for IC50: mean ± SD
Experimental: as §1, §2, §3

MCF-7 cells = experiment: MTT cytotoxicity assay on MCF-7 cells; type: cell-based; conditions: for primary growth inhibitory screen, cell viability, MCF-7: 2.5 µM, 72 h, mean±SD, untreated control about 100; for IC50: mean ± SD
Experimental: as §1, §2, §3

HeLa cells = experiment: MTT cytotoxicity assay on HeLa cells; type: cell-based; conditions: for primary growth inhibitory screen, cell viability, HeLa: 2.5 µM, mean±SD, untreated control about 100; for IC50: mean ± SD
Experimental: as §1, §2, §3

[1] = Homo sapiens, DU-145, 72 h, compounds 1-7 µM, read-out: IC50 on DU145
[2] = Homo sapiens, MRC5, 72 h, compounds 1-7 µM, read-out: IC50 on MRC-5
[3] = Homo sapiens, PC-3, 72 h, compounds 1-7 µM, read-out: IC50 on PC-3
[4] = Homo sapiens, MCF7, 72 h, compounds 1-7 µM, read-out: IC50 on MCF-7
[5] = Homo sapiens, HeLa, 72 h, compounds 1-7 µM, read-out: IC50 on HeLa

## CC(=O)O[C@H]1CC[C@H]2[C@@H]3CCc4cc5oc(=O)c6cn(-c7ccccc7)nc6c5cc4[C@H]3CC[C@]12C [Compound 9a]
DU145 cells
  primary growth inhibitory screen, cell viability, DU145: ≥ 100±5.8
DU145 cells; [1]
  IC50: 5.66 ± 1 µM
MRC-5 fibroblasts; 2.5 µM, 72 h
  primary growth inhibitory screen, cell viability, MRC-5: ≥ 100±8.1
MRC-5 fibroblasts; [2]
  IC50: 6.41 ± 1.1 µM
PC-3 cells
  primary growth inhibitory screen, cell viability, PC-3: 82.0±2.2
PC-3 cells; [3]
  IC50: 4.22 ± 1 µM
MCF-7 cells
  primary growth inhibitory screen, cell viability, MCF-7: ≥ 100±2.4
MCF-7 cells; [4]
  IC50: 4.94 ± 1 µM
other
  melting point: 198 to 200 °C
HeLa cells; 72 h
  primary growth inhibitory screen, cell viability, HeLa: 73.8±0.6
HeLa cells; [5]
  IC50: 1.55 ± 1 µM

## CC(=O)c1cc2c(cc1O)CC[C@@H]1[C@@H]2CC[C@]2(C)[C@@H](O)CC[C@@H]12 [Compound 5, 2-Acetyl-estra-1,3,5(10)-triene-3,17β-diol]
DU145 cells
  primary growth inhibitory screen, cell viability, DU145: 100.6±6.5
MRC-5 fibroblasts; 2.5 µM, 72 h
  primary growth inhibitory screen, cell viability, MRC-5: ≥ 100±7
PC-3 cells
  primary growth inhibitory screen, cell viability, PC-3: 79.0±3.8
MCF-7 cells
  primary growth inhibitory screen, cell viability, MCF-7: 87.5
other
  melting point: 189 to 191 °C
HeLa cells; 72 h
  primary growth inhibitory screen, cell viability, HeLa: 99.6±3.5

## O=c1oc2cc3c(cc2c2nn(-c4ccccc4)cc12)CCCC3 [Compound 19a, 2-Phenyl-7,8,9,10-tetrahydrobenzo[6,7]chromeno[4,3-c]pyrazol-4(2H)-one]
DU145 cells
  primary growth inhibitory screen, cell viability, DU145: 21.6±0.5
DU145 cells; [1]
  IC50: 1.41 ± 1.1 µM
MRC-5 fibroblasts; 2.5 µM, 72 h
  primary growth inhibitory screen, cell viability, MRC-5: ≥ 100±3.0
MRC-5 fibroblasts; 2.5 µM, 72 h, based on the heat map
  effect on non-cancerous fibroblasts: no or very mild effect
MRC-5 fibroblasts; [2]
  IC50: > 7 µM
PC-3 cells
  primary growth inhibitory screen, cell viability, PC-3: 95.4±1.3
PC-3 cells; [3]
  IC50: 4.7 ± 1 µM
MCF-7 cells
  primary growth inhibitory screen, cell viability, MCF-7: ≥ 100±3.9
MCF-7 cells; [4]
  IC50: 6.83 ± 1.1 µM
other
  melting point: 221 to 223 °C
HeLa cells; 72 h
  primary growth inhibitory screen, cell viability, HeLa: ≥ 100±8.7
HeLa cells; [5]
  IC50: > 7 µM

## OCc1cn(-c2ccccc2)nc1-c1cc2c(cc1O)CCCC2 [Compound 18a, 3-(4′-(Hydroxymethyl)-1′-phenyl-1′H-pyrazol-3′-yl)-5,6,7,8-tetrahydro-2-naphthol]
DU145 cells
  primary growth inhibitory screen, cell viability, DU145: 87.0±18.2
MRC-5 fibroblasts; 2.5 µM, 72 h
  primary growth inhibitory screen, cell viability, MRC-5: ≥ 100±0.1
PC-3 cells
  primary growth inhibitory screen, cell viability, PC-3: 91.5±12.9
MCF-7 cells
  primary growth inhibitory screen, cell viability, MCF-7: 98.0±7.1
other
  melting point: 135 to 137 °C
HeLa cells; 72 h
  primary growth inhibitory screen, cell viability, HeLa: ≥ 100±6.5

## CC(=O)O[C@H]1CC[C@H]2[C@@H]3CCc4cc(O)c(-c5nn(-c6ccc(C)cc6)cc5C=O)cc4[C@H]3CC[C@]12C [Compound 7b, 2-(4′-Formyl-1′-(4″-tolyl)-1′H-pyrazol-3′-yl)-estra-1,3,5(10)-triene-3,17β-diol-17-acetate]
DU145 cells
  primary growth inhibitory screen, cell viability, DU145: 98.7±15.6
MRC-5 fibroblasts; 2.5 µM, 72 h
  primary growth inhibitory screen, cell viability, MRC-5: 100.4±5.1
PC-3 cells
  primary growth inhibitory screen, cell viability, PC-3: 98.2±6.5
MCF-7 cells
  primary growth inhibitory screen, cell viability, MCF-7: ≥ 100±4.3
other
  melting point: 229 to 231 °C
HeLa cells; 72 h
  primary growth inhibitory screen, cell viability, HeLa: 100.1±2.1

## Cc1ccc(-n2cc(C=O)c(-c3cc4c(cc3O)CCCC4)n2)cc1 [Compound 17b, 3′-(3-Hydroxy-5,6,7,8-tetrahydronaphthalen-2-yl)-1′-(4″-tolyl)-1′H-pyrazole-4′-carbaldehyde]
DU145 cells
  primary growth inhibitory screen, cell viability, DU145: ≥ 100±16.8
MRC-5 fibroblasts; 2.5 µM, 72 h
  primary growth inhibitory screen, cell viability, MRC-5: ≥ 100±14.5
PC-3 cells
  primary growth inhibitory screen, cell viability, PC-3: ≥ 100±3.0
MCF-7 cells
  primary growth inhibitory screen, cell viability, MCF-7: 93.2±6.0
other
  melting point: 151 to 153 °C
HeLa cells; 72 h
  primary growth inhibitory screen, cell viability, HeLa: ≥ 100±3.9

## N.N.[Cl][Pt][Cl] [cisplatin, reference compound]
DU145 cells; cisplatin applied for 24 h, 20-330 µM, read-out: IC50 on DU145 (positive control)
  IC50: 116.1 ± 1.06 µM
MRC-5 fibroblasts; cisplatin applied for 24 h, 20-330 µM, read-out: IC50 on MRC-5 (positive control)
  IC50: 34.3 ± 1.02 µM
PC-3 cells; cisplatin applied for 24 h, 20-330 µM, read-out: IC50 on PC-3 (positive control)
  IC50: > 330 µM
MCF-7 cells; cisplatin applied for 24 h, 20-330 µM, read-out: IC50 on MCF-7 (positive control)
  IC50: > 330 µM
HeLa cells; cisplatin applied for 24 h, 20-330 µM, read-out: IC50 on HeLa (positive control)
  IC50: 297.1 ± 1.02 µM
